Several values for one entry are separate records, joined by “and”; a condition that tells them apart may be missing. Equal entries are not always repeated. Where two headings read alike, the source gives them in different places.
Tests used:
[1] = biological target: hCB1 (Homo sapiens, UniProt P21554); test: bioSensAll ebBRET signaling profiling, hCB1; type: cell-based; set-up: host or cells: HEK293SL cells, transient PEI transfection; conditions: for Gi1 hCB1 response: Gi1 biosensor; for Gi1 hCB1 / GoB hCB1: single replicate values, FigS6a; for Emax [95% CI]: normalized to CP-55,940; for EC50: read-out: EC50 [95% CI]
Chain of hCB1 (P21554 whole entry): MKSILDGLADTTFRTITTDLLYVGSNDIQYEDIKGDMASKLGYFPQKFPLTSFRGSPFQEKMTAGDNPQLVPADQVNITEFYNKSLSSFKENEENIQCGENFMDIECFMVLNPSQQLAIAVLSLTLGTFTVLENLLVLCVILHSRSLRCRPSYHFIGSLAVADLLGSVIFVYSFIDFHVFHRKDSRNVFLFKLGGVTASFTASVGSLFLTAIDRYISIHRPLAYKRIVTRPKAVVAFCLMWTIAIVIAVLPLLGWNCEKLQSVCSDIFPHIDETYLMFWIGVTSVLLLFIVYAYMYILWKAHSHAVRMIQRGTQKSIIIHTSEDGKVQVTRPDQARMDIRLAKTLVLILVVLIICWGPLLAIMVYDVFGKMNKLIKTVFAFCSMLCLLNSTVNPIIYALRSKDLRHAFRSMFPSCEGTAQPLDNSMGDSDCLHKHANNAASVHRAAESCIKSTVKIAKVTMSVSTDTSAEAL

[2] = biological target: CB1 (rCB1) (Rattus norvegicus, UniProt P20272); test: Radioligand competition binding, [3H]-CP-55,940, rat brain membranes
Chain of CB1 (rCB1) (P20272 whole entry): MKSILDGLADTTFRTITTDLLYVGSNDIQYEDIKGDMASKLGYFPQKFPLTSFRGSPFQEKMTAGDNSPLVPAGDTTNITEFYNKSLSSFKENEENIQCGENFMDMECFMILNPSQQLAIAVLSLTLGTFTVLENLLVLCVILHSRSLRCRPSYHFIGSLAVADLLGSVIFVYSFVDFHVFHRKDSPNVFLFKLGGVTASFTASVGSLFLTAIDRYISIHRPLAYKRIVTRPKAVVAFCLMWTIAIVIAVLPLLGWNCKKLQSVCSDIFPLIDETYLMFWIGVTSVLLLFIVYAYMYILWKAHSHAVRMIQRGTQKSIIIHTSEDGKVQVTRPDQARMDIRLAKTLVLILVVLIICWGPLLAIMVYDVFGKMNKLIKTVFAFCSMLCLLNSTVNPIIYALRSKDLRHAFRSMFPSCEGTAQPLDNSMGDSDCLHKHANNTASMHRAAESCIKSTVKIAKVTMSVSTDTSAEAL

With `COC(=O)[C@@H]1[C@@H]2CC[C@@H]2CN1C(=O)c1cc(C)n(-c2cccc(C(F)(F)F)c2)n1` [‘6448] the “Gi1 hCB1 response” value ([1]; Log [Compound] (M) -4.22186) was 143.498, the “Gi1 hCB1 response” value ([1]; Log [Compound] (M) -4.63927) was 116.752 and the “Gi1 hCB1 response” value ([1]; Log [Compound] (M) -5.05788) was 114.537. For the same compound, the “Gi1 hCB1 response” value ([1]; Log [Compound] (M) -5.47381) was 101.197, the “Gi1 hCB1 response” value ([1]; Log [Compound] (M) -5.89285) was 80.4274 and the “Gi1 hCB1 response” value ([1]; Log [Compound] (M) -6.31878) was 64.6261. The “Gi1 hCB1 response” value ([1]; Log [Compound] (M) -6.72585) was 36.0226, the “Gi1 hCB1 response” value ([1]; Log [Compound] (M) -7.14267) was 33.4711 and the “Gi1 hCB1 response” value ([1]; Log [Compound] (M) -7.55284) was 2.182. The “Gi1 hCB1 response” value ([1]; Log [Compound] (M) -8) was -1.914, the “Gi1 hCB1 response” value ([1]; Log [Compound] (M) -8.22186) was -2.63 and the “Gi1 hCB1 response” value ([1]; Log [Compound] (M) -8.39794) was -2.8987. The “Gi1 hCB1 response” value ([1]; Log [Compound] (M) -8.68787) was 4.689, the “Gi1 hCB1 response” value ([1]; Log [Compound] (M) -9.15521) was 0.03327 and the “Gi1 hCB1 response” value ([1]; Log [Compound] (M) -9.61989) was -4.421. For the same compound, the “Gi1 hCB1 response” value ([1]; Log [Compound] (M) -10.0969) was -3.391, the “Gi1 hCB1 response” value ([1]; Log [Compound] (M) -10.5529) was -11.5156 and the “Gi1 hCB1 response” value ([1]; Log [Compound] (M) -11.0177) was -16.4171. For the same compound, the “Gi1 hCB1 response” value ([1]; Log [Compound] (M) -11.4949) was -6.8826, the “Gi1 hCB1 response” value ([1]; Log [Compound] (M) -11.9208) was -5.674 and the “Gi1 hCB1 response” value ([1]; Log [Compound] (M) -12.3979) was -5.204. For the same compound, the “Gi1 hCB1 response” value ([1]; Log [Compound] (M) -12.8861) was 5.741, the “Gi1 hCB1 response” value ([1]; Log [Compound] (M) -13, individual replicate values) was -12.366 and -4.51 and the “Gi1 hCB1” value ([1]; Log [Compound] (M) -4.22186) was 89.2431. The “GoB hCB1” value ([1]; Log [Compound] (M) -4.22186) was 86.7412, the “Gi1 hCB1” value ([1]; Log [Compound] (M) -4.63927) was 88.0098 and the “GoB hCB1” value ([1]; Log [Compound] (M) -4.63927) was 85.932. For the same compound, the “Gi1 hCB1” value ([1]; Log [Compound] (M) -5.05788) was 83.6623, the “GoB hCB1” value ([1]; Log [Compound] (M) -5.05788) was 87.6943 and the “Gi1 hCB1” value ([1]; Log [Compound] (M) -5.47381) was 80.8256. The “GoB hCB1” value ([1]; Log [Compound] (M) -5.47381) was 88.7014, the “Gi1 hCB1” value ([1]; Log [Compound] (M) -5.89285) was 71.5911 and the “GoB hCB1” value ([1]; Log [Compound] (M) -5.89285) was 74.7104. For the same compound, the “Gi1 hCB1” value ([1]; Log [Compound] (M) -6.31878) was 53.785, the “GoB hCB1” value ([1]; Log [Compound] (M) -6.31878) was 55.1804 and the “Gi1 hCB1” value ([1]; Log [Compound] (M) -6.72585) was 28.6559. The “GoB hCB1” value ([1]; Log [Compound] (M) -6.72585) was 28.2594, the “Gi1 hCB1” value ([1]; Log [Compound] (M) -7.14267) was 11.4665 and the “GoB hCB1” value ([1]; Log [Compound] (M) -7.14267) was 15.0956. The “Gi1 hCB1” value ([1]; Log [Compound] (M) -7.55284) was 4.6215, the “GoB hCB1” value ([1]; Log [Compound] (M) -7.55284) was 3.137 and the “Gi1 hCB1” value ([1]; Log [Compound] (M) -8) was 2.093. For the same compound, the “GoB hCB1” value ([1]; Log [Compound] (M) -8) was 2.004, the “Gi1 hCB1” value ([1]; Log [Compound] (M) -8.22186) was -0.06514 and the “GoB hCB1” value ([1]; Log [Compound] (M) -8.22186) was -3.751. The “Gi1 hCB1” value ([1]; Log [Compound] (M) -8.39794) was 1.1836, the “GoB hCB1” value ([1]; Log [Compound] (M) -8.39794) was 1.464 and the “Gi1 hCB1” value ([1]; Log [Compound] (M) -8.68787) was -1.113. For the same compound, the “GoB hCB1” value ([1]; Log [Compound] (M) -8.68787) was -5.28, the “Gi1 hCB1” value ([1]; Log [Compound] (M) -9.15521) was -0.1114 and the “GoB hCB1” value ([1]; Log [Compound] (M) -9.15521) was -2.294. The “Gi1 hCB1” value ([1]; Log [Compound] (M) -9.61989) was 0.7519, the “GoB hCB1” value ([1]; Log [Compound] (M) -9.61989) was -1.629 and the “Gi1 hCB1” value ([1]; Log [Compound] (M) -10.0969) was 0.8753. The “GoB hCB1” value ([1]; Log [Compound] (M) -10.0969) was -3.751, the “Gi1 hCB1” value ([1]; Log [Compound] (M) -10.5529) was 1.9236 and the “GoB hCB1” value ([1]; Log [Compound] (M) -10.5529) was -0.9636. For the same compound, the “Gi1 hCB1” value ([1]; Log [Compound] (M) -11.0177) was -0.281, the “GoB hCB1” value ([1]; Log [Compound] (M) -11.0177) was -2.384 and the “Gi1 hCB1” value ([1]; Log [Compound] (M) -11.4949) was -0.1268. The “GoB hCB1” value ([1]; Log [Compound] (M) -11.4949) was -1.305, the “Gi1 hCB1” value ([1]; Log [Compound] (M) -11.9208) was -0.1885 and the “GoB hCB1” value ([1]; Log [Compound] (M) -11.9208) was 1.266. The “Gi1 hCB1” value ([1]; Log [Compound] (M) -12.3979) was 1.723, the “GoB hCB1” value ([1]; Log [Compound] (M) -12.3979) was 0.7628 and the “Gi1 hCB1” value ([1]; Log [Compound] (M) -12.8861) was 0.4436. The “GoB hCB1” value ([1]; Log [Compound] (M) -12.8861) was -2.798, the “Gi1 hCB1” value ([1]; Log [Compound] (M) -13) was 0.1969 and 0.2278 and the “GoB hCB1” value ([1]; Log [Compound] (M) -13) was 1.32 and 1.356. The “pEC50 [95% CI]” value ([1]; hCB1 Gi1) was 6.5 [6.4 – 6.5], the “Emax [95% CI]” value ([1]; hCB1 Gi1) was 87 [86 – 88] and the “pEC50 [95% CI]” value ([1]; hCB1 GoB) was 6.5 [6.4 – 6.6]. For the same compound, the “Emax [95% CI]” value ([1]; hCB1 GoB) was 90 [87 – 91], the “pEC50 [95% CI]” value ([1]; hCB1 Gz) was 6.1 [5.9 – 6.4] and the “Emax [95% CI]” value ([1]; hCB1 Gz) was 151 [130 –172]. It also gave an EC50 ([1]; hCB1 Gi1) of 345 nM, an EC50 ([1]; hCB1 GoB) of 310 nM and an EC50 ([1]; hCB1 Gz) of 728 nM. For the same compound, the “pKi [95% CI]” value ([2]; rCB1) was 6.1 [5.9 – 6.3] and the Ki ([2]; read-out: Ki [95% CI], rCB1, [3H]-CP-55,940) was 866 nM.

— publication PMC11882969 (Nature Communications, 2025)
